Assay results: PubChem BioAssay AID1259407 (Chemical Carcinogenesis Research Information System (CCRIS), 2018)
Activity calls are given as the source filed them. The rule behind the calls is not given here.

Test system: CCRIS mutagenicity, Ames/micronucleus/aberration tests
Assay: CCRIS mutagenicity studies
Conditions: Test System: AMES SALMONELLA TYPHIMURIUM
[1] = Strain/Indicator: TA100, Metabolic Activation: NONE, Method: STANDARD PLATE

Q: For CC1CN(N=O)CC(C)O1 (stereo not drawn), which mutagenic call (Strain/Indicator: TA100, Metabolic Activation: HAMSTER, LIVER, S-9, 3-METHYLCHOLANTHRENE, Method: PREINCUBATION) is on record?
A: The mutagenic call was “active; positive”.

Q: And the mutagenic call (Strain/Indicator: TA100, Metabolic Activation: HAMSTER, LIVER, S-9, PHENOBARBITAL, Method: PREINCUBATION)?
A: The mutagenic call was “active; positive”.

Q: What about the mutagenic call (Strain/Indicator: TA100, Metabolic Activation: HAMSTER, LIVER, S-9, Method: PREINCUBATION) of the same compound?
A: The mutagenic call was “active; positive”.

Q: And the mutagenic call (Strain/Indicator: TA100, Metabolic Activation: HUMAN, LIVER, S-9, Method: PREINCUBATION)?
A: The mutagenic call was “inactive; negative”.

Q: What about the mutagenic call (Strain/Indicator: TA100, Metabolic Activation: MONKEY, LIVER, S-9, Method: PREINCUBATION) of the same compound?
A: Its mutagenic call is “active; positive”.

Q: What about the mutagenic call (Strain/Indicator: TA100, Metabolic Activation: MOUSE, LIVER, S-9, 3-METHYLCHOLANTHRENE, Method: PREINCUBATION) of the same compound?
A: Its mutagenic call is “active; positive”.

Q: What about the mutagenic call (Strain/Indicator: TA100, Metabolic Activation: MOUSE, LIVER, S-9, PHENOBARBITAL, Method: PREINCUBATION) of the same compound?
A: The mutagenic call was “active; positive”.

Q: What about the mutagenic call (Strain/Indicator: TA100, Metabolic Activation: MOUSE, LIVER, S-9, Method: PREINCUBATION) of the same compound?
A: Its mutagenic call is “active; positive”.

Q: And the mutagenic call (Strain/Indicator: TA100, Metabolic Activation: NONE, Method: PREINCUBATION)?
A: Its mutagenic call is “inactive; negative”.

Q: What about the mutagenic call (Strain/Indicator: TA100, Metabolic Activation: RABBIT, LIVER, S-9, Method: PREINCUBATION) of the same compound?
A: Its mutagenic call is “active; positive”.

Q: What about the mutagenic call (Strain/Indicator: TA100, Metabolic Activation: RAT, LIVER, CYTOSOL, PCB, Method: PREINCUBATION) of the same compound?
A: The mutagenic call was “inactive; negative”.

Q: What about the mutagenic call (Strain/Indicator: TA100, Metabolic Activation: RAT, LIVER, MICROSOMES AND CYTOSOL, PCB, Method: PREINCUBATION) of the same compound?
A: Its mutagenic call is “active; positive”.

Q: What about the mutagenic call (Strain/Indicator: TA100, Metabolic Activation: RAT, LIVER, MICROSOMES AND G6PDH, PCB, Method: PREINCUBATION) of the same compound?
A: Its mutagenic call is “active; positive”.

Q: And the mutagenic call (Strain/Indicator: TA100, Metabolic Activation: RAT, LIVER, MICROSOMES, PCB, Method: PREINCUBATION)?
A: Its mutagenic call is “active; positive”.

Q: And the mutagenic call (Strain/Indicator: TA100, Metabolic Activation: RAT, LIVER, S-9 (HEATED), PCB, Method: PREINCUBATION)?
A: The mutagenic call was “inactive; negative”.

Q: And the mutagenic call (Strain/Indicator: TA100, Metabolic Activation: RAT, LIVER, S-9, 3-METHYLCHOLANTHRENE, Method: PREINCUBATION)?
A: The mutagenic call was “active; positive”.

Q: What about the mutagenic call (Strain/Indicator: TA100, Metabolic Activation: RAT, LIVER, S-9, PCB, Method: PREINCUBATION) of the same compound?
A: The mutagenic call was “active; positive”.

Q: And the mutagenic call (Strain/Indicator: TA100, Metabolic Activation: RAT, LIVER, S-9, PHENOBARBITAL, Method: PREINCUBATION)?
A: The mutagenic call was “active; positive”.

Q: What about the mutagenic call (Strain/Indicator: TA100, Metabolic Activation: RAT, LIVER, S-9, Method: PREINCUBATION) of the same compound?
A: Its mutagenic call is “active; positive”.

Q: What about the mutagenic call (Strain/Indicator: TA100, Metabolic Activation: RAT, LIVER, S-9 WITHOUT NADP+, PCB, Method: PREINCUBATION) of the same compound?
A: The mutagenic call was “inactive; negative”.

Q: What about the mutagenic call (Strain/Indicator: TA100, Method: PREINCUBATION) of the same compound?
A: Its mutagenic call is “active; positive”.

Q: How did the mutagenic call (Strain/Indicator: TA98, Metabolic Activation: RAT, LIVER, S-9, AROCLOR 1254, Method: STANDARD PLATE) turn out when CC(=O)Nc1ccc2c(c1)Cc1cccc(O)c1-2 was run?
A: Its mutagenic call is “active; positive”.

Q: And the mutagenic call (Strain/Indicator: TA100, Metabolic Activation: RAT, LIVER, S-9, AROCLOR 1254, Method: STANDARD PLATE)?
A: The mutagenic call was “active; positive”.

Q: And the mutagenic call (Strain/Indicator: TA1538, Metabolic Activation: RAT, LIVER, S-9, AROCLOR 1254, Method: STANDARD PLATE)?
A: The mutagenic call was “active; positive”.

Q: With O=[N+]([O-])c1cc2cccc3c4c(c5cccc1c5c23)CCCC4 as the compound, how does the mutagenic call (Strain/Indicator: TA98, Metabolic Activation: NONE', Method: STANDARD PLATE) read?
A: The mutagenic call was “active; positive”.

Q: And the mutagenic call [1]?
A: The mutagenic call was “active; positive”.

Q: Which results are given for CC(Br)C(=O)Nc1ccccc1 (stereo not drawn)?
A: mutagenic call (Strain/Indicator: TA100, Metabolic Activation: MOUSE, LIVER, S-9, AROCLOR 1254, Method: STANDARD PLATE): active; positive; mutagenic call [1]: inactive; negative
